Measured values taken from patent US8093250B2, “2-aminocarbonyl-pyridine derivatives” (Actelion Pharmaceuticals Ltd., priority 2006, dated 2012).

The compounds below were run against T1, human P2Y12 receptor (Homo sapiens, UniProt Q9H244) (assay: P2Y12 receptor binding assay). Details: CHO cells with recombinant human P2Y12 receptor; tritium-labeled 2-methyl-S-ADP; 2 hours at RT.
T1 construct: expressed in transfected cells; host or cells: Chinese Hamster Ovary (CHO) cells
Description: Chinese Hamster Ovary (CHO) cells with recombinant expression of the human P2Y12 receptor were cultured in 24 well cell-culture plates. Cells were washed three times with binding buffer (50 mM Tris pH 7.4, 100 mM NaCl, 1 mM EDTA, 0.5% BSA). The cells were then incubated with 0.5 ml per well binding buffer containing tritium-labeled 2-methyl-thio-adenosine 5′-diphosphate (2-methyl-S-ADP) (between 100'000 and 300'000 dpm per well) and various concentrations of test compounds. After incubation at RT for 2 hours, cells were washed three times with binding buffer. Then, cells were solubilized by addition of 0.5 ml solubilization buffer (SDS, NaOH, EDTA). The content of each well was then transferred into beta-counter vials and 2.0 ml of Ultima Gold Scintillation liquid was added.

T1 sequence (Q9H244 whole entry): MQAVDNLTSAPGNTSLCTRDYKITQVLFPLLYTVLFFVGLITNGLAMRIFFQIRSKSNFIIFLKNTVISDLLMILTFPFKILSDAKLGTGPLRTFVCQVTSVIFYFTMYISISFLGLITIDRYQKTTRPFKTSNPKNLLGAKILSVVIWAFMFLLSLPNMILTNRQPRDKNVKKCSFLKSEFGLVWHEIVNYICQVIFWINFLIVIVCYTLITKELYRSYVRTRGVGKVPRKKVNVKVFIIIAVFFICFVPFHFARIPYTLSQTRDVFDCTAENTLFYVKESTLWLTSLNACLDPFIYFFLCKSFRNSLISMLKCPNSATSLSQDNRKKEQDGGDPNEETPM

Structure (SMILES)	IC50 [nM]
CCOC(=O)N1CCN(C(=O)[C@H](CCC(=O)O)NC(=O)c2cc(CCC(C)(C)O)cc(-c3ccccc3)n2)CC1 [Example 28, 4-((S)-4-carboxy-2-{[4-(3-hydroxy-3-methyl-butyl)-6-phenyl-pyridine-2-carbonyl]-amino}-butyryl)-piperazine-1-carboxylic acid ethyl ester]	96
CCCCOC(=O)N1CCN(C(=O)[C@H](CCC(=O)OC(C)(C)C)NC(=O)c2cc(N3CC[C@H](OC)C3)cc(-c3ccccc3)n2)CC1 [Example 72, 4-((S)-4-tert-butoxycarbonyl-2-{[4-((S)-3-methoxy-pyrrolidin-1-yl)-6-phenyl-pyridine-2-carbonyl]-amino}-butyryl)-piperazine-1-carboxylic acid butyl ester]	1760
CCOC(=O)N1CCN(C(=O)[C@H](CO)NC(=O)c2cc(-c3ccccc3)cc(-c3ccccc3)n2)CC1 [Example 24, 4-{(S)-2-[(4,6-diphenyl-pyridine-2-carbonyl)-amino]-3-hydroxy-propionyl}-piperazine-1-carboxylic acid ethyl ester]	204
CCOC(=O)N1CCN(C(=O)[C@H](CCC(=O)O)NC(=O)c2cc(-c3ccsc3)cc(-c3ccccc3)n2)CC1 [Example 32, 4-{(S)-4-carboxy-2-[(6-phenyl-4-thiophen-3-yl-pyridine-2-carbonyl)-amino]-butyryl}-piperazine-1-carboxylic acid ethyl ester]	67
CCOC(=O)N1CCN(C(=O)[C@H](CCC(=O)O)NC(=O)c2cc(Cl)cc(-c3ccccc3)n2)CC1 [Example 1, 4-{(S)-4-carboxy-2-[(4-chloro-6-phenyl-pyridine-2-carbonyl)-amino]-butyryl}-piperazine-1-carboxylic acid ethyl ester]	34
CCCCOC(=O)N1CCN(C(=O)[C@@H](NC(=O)c2cc(N3CC[C@H](OC)C3)cc(-c3ccccc3)n2)C(C)C)CC1 [Example 69, 4-((S)-2-{[4-((S)-3-methoxy-pyrrolidin-1-yl)-6-phenyl-pyridine-2-carbonyl]-amino}-3-methyl-butyryl)-piperazine-1-carboxylic acid butyl ester]	109
CCOC(=O)N1CCN(C(=O)[C@H](CCC(=O)O)NC(=O)c2cc(OC3CCOC3)cc(-c3ccccc3)n2)CC1 (stereo partly drawn) [Example 37, 4-((S)-4-carboxy-2-{[6-phenyl-4-(tetrahydro-furan-3-yloxy)-pyridine-2-carbonyl]-amino}-butyryl)-piperazine-1-carboxylic acid ethyl ester]	94
CCOC(=O)N1CCN(C(=O)[C@H](CCC(=O)OC(C)(C)C)NC(=O)c2cc(Cl)cc(-c3ccccc3)n2)CC1 [Example 39, 4-{(S)-4-O-tert-butoxycarbonyl-2-[(4-chloro-6-phenyl-pyridine-2-carbonyl)-amino]-butyryl}-piperazine-1-carboxylic acid ethyl ester]	2150
CCCCNc1cc(C(=O)N[C@@H](CCC(=O)O)C(=O)N2CCN(C(=O)OCC)CC2)nc(-c2ccccc2)c1F [Example 75, 4-{(S)-2-[(4-butylamino-5-fluoro-6-phenyl-pyridine-2-carbonyl)-amino]-4-carboxy-butyryl}-piperazine-1-carboxylic acid ethyl ester]	386
CCOC(=O)N1CCN(C(=O)[C@H](Cc2nn[nH]n2)NC(=O)c2cc(-c3ccccc3)cc(-c3ccccc3)n2)CC1 [Example 66, 4-[(S)-2-[(4,6-diphenyl-pyridine-2-carbonyl)-amino]-3-(2H-tetrazol-5-yl)-propionyl]-piperazine-1-carboxylic acid ethyl ester]	40
CCOC(=O)N1CCN(C(=O)[C@H](CCC(=O)O)NC(=O)c2nc(-c3ccccc3)cc(C3CC3)c2OC)CC1 [Example 71, 4-{(S)-4-carboxy-2-[(4-cyclopropyl-3-methoxy-6-phenyl-pyridine-2-carbonyl)-amino]-butyryl}-piperazine-1-carboxylic acid ethyl ester]	510
